Test systems include A549 NSCLC; COLO 205 colon; EKVX NSCLC; HCC-2998 colon; HCT-116 colon; HCT-15 colon; HOP-62 NSCLC; HOP-92 NSCLC; LOX IMVI melanoma; NCI-H23 lung; OVCAR-5 ovarian; OVCAR-8 ovarian; RXF 393 renal; SF-295 CNS; SF-539 CNS; U251 CNS; NCI-H226 lung.
Experiment in all cases: DTP human tumour cell line panel, 48 h

Here are results for nine molecules from PubChem BioAssay (NCI).

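Five concentrations, 48 hours, 96-well plates. TGI is the concentration that stops growth completely.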

The TGI is the concentration giving total growth inhibition. On to `COCN(C)c1nc(N(C)C)nc(N(C)C)n1`, for which the TGI in the experiment with A549 NSCLC, with COLO 205 colon, with EKVX NSCLC, in the experiment with HCC-2998 colon, with HCT-116 colon and in the experiment on HCT-15 colon was more than 100 µM each time. Moreover, the TGI with HOP-62 NSCLC, with HOP-92 NSCLC, in the experiment with LOX IMVI melanoma, in the experiment with NCI-H23 lung, in the experiment with OVCAR-5 ovarian and in the experiment on OVCAR-8 ovarian was more than 100 µM throughout. Also, the TGI with RXF 393 renal, in the experiment on SF-295 CNS, in the experiment with SF-539 CNS and in the experiment on U251 CNS was more than 100 µM each time.
With `C(=C\C(Sc1ccccc1)c1ccccc1)/NNC1=NC(c2ccccc2)C(c2ccccc2)=NN1` (stereo unspecified), the TGI with A549 NSCLC, in the experiment with COLO 205 colon, in the experiment with EKVX NSCLC, in the experiment with HCC-2998 colon, with HCT-116 colon and in the experiment with HCT-15 colon was more than 100 µM throughout. For the same molecule, the TGI in the experiment on HOP-62 NSCLC is more than 100 µM; in the experiment on HOP-92 NSCLC it was 80.7 µM; in the experiment on LOX IMVI melanoma, more than 100 µM; in the experiment with NCI-H226 lung it was more than 100 µM; with NCI-H23 lung, more than 100 µM; in the experiment on OVCAR-5 ovarian, more than 100 µM. For the same molecule, the TGI in the experiment on OVCAR-8 ovarian, with SF-295 CNS, in the experiment on SF-539 CNS and in the experiment with U251 CNS was more than 100 µM each time.
Regarding `Cn1c2ccccc2c2ccc3c(c21)C(=O)C(c1ccccc1)=CC3=O`, the TGI in the experiment with A549 NSCLC was more than 100 µM; with COLO 205 colon it was more than 100 µM; in the experiment on EKVX NSCLC, 75.2 µM; in the experiment on HCC-2998 colon, 56.4 µM; in the experiment with HCT-116 colon, 38.2 µM; in the experiment on HCT-15 colon, 22.2 µM. The TGI is more than 100 µM with HOP-62 NSCLC; 56.2 µM in the experiment on HOP-92 NSCLC; 40.7 µM with NCI-H226 lung; more than 100 µM in the experiment with NCI-H23 lung; more than 100 µM in the experiment with OVCAR-5 ovarian; 42.6 µM with OVCAR-8 ovarian. Besides, the TGI with SF-295 CNS is more than 100 µM; in the experiment on SF-539 CNS, 47.2 µM; with U251 CNS, more than 100 µM.
For the molecule `CC(=O)NNc1nc(C)c(C(=O)NNC(=O)C(=O)Nc2c([N+](=O)[O-])ccc(C)c2C)s1`, the TGI in the experiment on A549 NSCLC, in the experiment with COLO 205 colon, with EKVX NSCLC, with HCC-2998 colon, with HCT-116 colon and in the experiment with HCT-15 colon was more than 100 µM throughout. The TGI in the experiment on HOP-62 NSCLC, with HOP-92 NSCLC, in the experiment with LOX IMVI melanoma, in the experiment with NCI-H226 lung, with NCI-H23 lung and in the experiment on OVCAR-5 ovarian was more than 100 µM each time. In addition, the TGI in the experiment on OVCAR-8 ovarian, with SF-295 CNS, in the experiment with SF-539 CNS and in the experiment on U251 CNS was more than 100 µM in each case.
As for `CSc1ccc(NC(=O)C2c3[nH]c4ccccc4c3C3CCC(C(C)(C)C)CC3C2C(=O)O)cc1` (stereo unspecified), the concentration for total growth inhibition (TGI) with A549 NSCLC was 30.9 µM; in the experiment with COLO 205 colon, 32 µM; with EKVX NSCLC, 85.3 µM; in the experiment with HCC-2998 colon, more than 100 µM; in the experiment on HCT-116 colon, 27.5 µM; with HCT-15 colon it was more than 100 µM. Moreover, the TGI with HOP-62 NSCLC is 32.1 µM; in the experiment with HOP-92 NSCLC it was 53 µM; in the experiment on NCI-H226 lung, 33.1 µM; in the experiment on NCI-H23 lung, 58.7 µM; in the experiment on OVCAR-8 ovarian it was 28.8 µM; in the experiment with RXF 393 renal, 49.5 µM. Besides, the TGI in the experiment with SF-295 CNS was 38.5 µM; in the experiment on SF-539 CNS it was 37.7 µM; in the experiment with U251 CNS it was 31.8 µM.
`CC1(C)Cc2c(oc3ncnc(N)c23)CS1`: the TGI in the experiment with A549 NSCLC, in the experiment with COLO 205 colon, in the experiment with EKVX NSCLC, with HCC-2998 colon, with HCT-116 colon and in the experiment with HCT-15 colon was more than 100 µM each time. Besides, the TGI with HOP-62 NSCLC, in the experiment on LOX IMVI melanoma, in the experiment with NCI-H226 lung, in the experiment on NCI-H23 lung, in the experiment on OVCAR-5 ovarian and in the experiment on OVCAR-8 ovarian was more than 100 µM each time. In addition, the concentration for total growth inhibition (TGI) with SF-295 CNS, in the experiment with SF-539 CNS and with U251 CNS was more than 100 µM in each case.
Regarding `COc1cc([C@@H]2c3cc4c(cc3[C@@H](OC(=O)c3cccc(N)c3)C3COC(=O)[C@@H]32)OCO4)cc(OC)c1O` (stereo partly specified), the concentration for total growth inhibition (TGI) was 25.9 µM in the experiment with A549 NSCLC; more than 45.6 µM in the experiment on COLO 205 colon; more than 100 µM with EKVX NSCLC; 28.7 µM in the experiment on HCC-2998 colon; more than 100 µM in the experiment on HCT-116 colon; more than 52.6 µM in the experiment with HCT-15 colon. The total growth inhibition concentration (TGI) was 18 µM in the experiment with HOP-62 NSCLC; 33.8 µM with LOX IMVI melanoma; 6.09 µM in the experiment with NCI-H226 lung; 6.2 µM with NCI-H23 lung; 60.1 µM in the experiment with OVCAR-5 ovarian; more than 100 µM with OVCAR-8 ovarian. In addition, the TGI in the experiment on RXF 393 renal turned out to be 83.5 µM; in the experiment with SF-295 CNS, 35.4 µM; in the experiment on SF-539 CNS, 13.8 µM; in the experiment with U251 CNS it was 22.9 µM.
Regarding `CC1(C)c2ccccc2N2O[C@@H]3C(=O)N(c4ccccc4)C(=O)[C@@H]3C21c1ccccc1` (stereo partly specified), the TGI in the experiment with A549 NSCLC, in the experiment with COLO 205 colon, in the experiment with EKVX NSCLC, in the experiment on HCC-2998 colon, in the experiment on HCT-15 colon and in the experiment with HOP-62 NSCLC was more than 100 µM each time. The TGI in the experiment on LOX IMVI melanoma, with NCI-H226 lung, in the experiment on NCI-H23 lung, in the experiment on OVCAR-8 ovarian, in the experiment with RXF 393 renal and in the experiment on SF-295 CNS was more than 100 µM each time. The molecule also registered a TGI in the experiment with SF-539 CNS of more than 100 µM.
For `Cc1c2ccncc2c(C)c2c1[nH]c1ccc(Oc3ccccc3)cc12`, the TGI in the experiment with A549 NSCLC is 4.8 µM; with EKVX NSCLC, more than 100 µM; in the experiment on HCC-2998 colon, 3.18 µM; with HOP-62 NSCLC, 4.42 µM; with HOP-92 NSCLC it was 13.9 µM; in the experiment on LOX IMVI melanoma it was 4 µM. The total growth inhibition concentration (TGI) is 37.6 µM in the experiment on NCI-H226 lung; more than 53.1 µM with NCI-H23 lung; 3.94 µM with OVCAR-5 ovarian; 3.48 µM in the experiment on OVCAR-8 ovarian; 3.84 µM in the experiment on RXF 393 renal; 12.6 µM in the experiment with SF-295 CNS. The TGI in the experiment with SF-539 CNS was determined as 3.13 µM; in the experiment with U251 CNS, 3.37 µM.
